Earlier results in patent publication US20050188697A1, “Fluorinated ketone and fluorinated ethers as working fluids for thermal energy conversion” (HONEYWELL CORPORATION, priority 2004, published 2005).

Columns and labels:
[1] = at 1 atmosphere
[2] = for Critical Temperature, Tc: Table 4 input

Structure (SMILES)	temperature at which toxic HCFC-133a is formed (thermal decomposition)	maximum temperature (thermal limitation) (to avoid formation of toxic HCFC-133a via thermal decomposition) [°C]	Flame Limits [1]	Critical Temperature, Tc [2] [°C]	Heat Capacity (liquid, 25° C.) [2] [J/g-mol K]
FC(F)(F)C(Cl)Cl [HCFC-123, 1,1-dichloro-2,2,2-trifluoroethane, reference compound]	below 300 ° F.	121.0	None	183.6	160.3
FC(F)CC(F)(F)F [HFC-245fa, 1,1,1,3,3-pentafluoropropane, reference compound]	–	–	None	151.1	185.5
COC(F)(F)C(F)(F)C(F)(F)C(F)(F)F [Methyl (perfluorobutyl) ether, 1-methoxynonafluorobutane]	–	–	None	195.3	293.8
O=C(C(F)(F)C(F)(F)F)C(F)(C(F)(F)F)C(F)(F)F [Perfluoroethyl perfluoroisopropyl ketone, dodecafluoro-2-methylpentan-3-one]	–	–	None	168.7	348.5
COC(F)(F)C(F)(F)C(F)(F)F [Methyl (perfluoropropyl) ether, 1-methoxyheptafluoropropane]	–	–	None	165.0	260.0
